# US11723947B2, “Anti-senescence compounds and uses thereof” (Erasmus University Medical Center Rotterdam, priority 2015, dated 2023)
# Peptide text beside a SMILES is read from it. * marks the point of attachment. Cbz = O=C(OCc1ccccc1)*; CH2F = FC*
# Assays:
# [1] = system: Senescent and control IMR90; details: for effect on effectiveness of FOXO4 DRI in lowering senescent cell viability: viability measured one day earlier; for effect of pan-caspase inhibitor on the FOXO4 DRI effect on senescent cell viability: 20 μM inhibitor, 25 μM FOXO4 DRI, senescent IMR90, 6 days
# Protocol: The selectivity index (S.I.) for the EC50 values was determined after […] (GraphPad Prism) of the curves. […] Real-time cell density was measured using an xCELLigence detection system (ACEA Biosciences). Prior to the start of the measurement 50 μL DMEM 10% FCS was added to each well of an E-plate view 16 (Roche) to determine background signal. Non-senescent (2000 cells per well) and senescent (5000 cells/well) IMR90 fibroblasts were then plated in 150 μl medium. 16 hours later the E-plate was placed in the xCELLigence reader and the cell density was recorded every 30 minutes. […] Measurements continued for the indicated time-points. […] Experiment as in FIG. 2C, but with the indicated peptides. […] Cells were plated in 4-well Poly-L-Lysine coated glass bottom 35 mm dishes (D141410; Matsumi, Japan) and incubated with NucView488 Caspase-3 (4440; Essen Bioscience). […] 8h after addition the real-time imaging was initiated and every 30 min a grid of 3×3 pictures was imaged. The imaging continued for another 6 days and the images were concatenated using Zen imaging software. […] After 6 days cell viability was determined as in FIG. 2C). […] Experiment as in FIG. 2C, but according to the indicated treatment plan. Instead of one single dose, three doses were given (one day in between) of ⅓ that concentration each time. […] Left: Experiment as in FIG. 2C, but on cells pretreated once daily for two days with IL-1α Receptor Antagonist (RA), which blocks IL-1α/β signaling, recombinant IL-6 and recombinant IL-1α/β. […] Right: Similar experiment as in the left panel, except viability measured one day earlier. […] In senescent cells p53 signaling causes upregulation of the cell-cycle arrest and pro-survival protein p21Cip1. […] Experiment as in FIG. 2K. […] Experiment as in FIG. 2c, but with control and senescent IMR90 stable transduced with shRNAs against p53 or a control shRNA (shGFP).
# A) Control IMR90 and IMR90 induced to senesce through 10Gy IR were plated in triplicate for each condition in a 96-well plate. […] After 6 days viability was determined through AqeousOne celltiter assay (Promega) according to the manufacturer's instructions.
# Non-senescent (=“normal”, proliferating) IMR90 cells (ATCC #CCL-186, a diploid primary human fibroblast adherent cell line derived from fetal lung tissue) were irradiated with 10Gy Gamma-IR (IR=irradiation). After 7 days these cells are senescent and can be used for experiments comparing them to their non-irradiated (=non-senescent) counterparts. Senescent and non-senescent IMR90 fibroblasts were plated for longitudinal cell density measurement using the xCELLigence system (ACEA Biosciences, Inc., San Diego, Calif.).
# (§1) 5000 senescent (obtained as described above) and 2000 non-senescent IMR90 fibroblasts were plated in 96-well plates incubated with concentrations of NQDI between 0-20 μM and after 6 days cell viability was determined by AqueousOne CellTiter (MTT) assay according to the manufacturer's instructions.
# as §1, with “R406, ranging from 16, 32, 64 to 128 nM” for “NQDI between 0-20 μM”
# Normal human IMR90 fibroblasts were exposed to 10 Gy Ionizing Radiation or treated 3× (bidaily) with 0.5 μM Doxorubicin. Seven days later they were processed for SA-β-Gal staining to visualize senescent cells. […] DAPI was used as a counterstain to visualize nuclei. […] After 6 days the cell viability was determined using an AqueousOne Celltiter (MTT) assay according to the manufacturer's instructions.
# IMR90 cells = assay: Senescence markers in Doxorubicin-treated IMR90 in vitro; assay type: cell-based, human
# Protocol: IMR90 cells were exposed twice to 0.5 μM Doxorubicin with one day in between. SA-β-GAL activity was determined 7 days later. […] This figure complements FIG. 4A+B by showing that next to the senescence markers SA-β-Gal and p16^ink4a also the SASP marker IL-6 is elevated by Doxorubicin. […] Mice were i.p. injected with 10 mg/kg Doxorubicin and analyzed for RLUC on the indicated time-points. Changes in RLUC intensity for 5 animals are plotted for the indicated timepoints after injection. […] Following one dose of Doxorubicin (10 mg/kg, i.p.) the mice were treated with FOXO4 DRI (n=6; 4×10 mg/kg i.v.) or PBS (n=4; 4× Mock) and processed for RLUC imaging after 14 d. […] Mice treated as indicated in FIG. 4F were analyzed for Bioluminescence. […] H) To improve the window for measuring healthspan changes, the treatment regime from FIG. 4F) was extended with one additional dose of Doxorubicin and milder FOXO4 DRI treatment. Following two doses of Doxorubicin (both 10 mg/kg i.p.) the mice (n=3 each group) were subsequentially treated with PBS or FOXO4 DRI (3×5 mg/kg, 1 d in between) and 14 d later analyzed for changes in healthspan. […] Post-mortem analysis of liver sections from mice (n=2 each group) treated as in FIG. 4H and stained for FOXO4. The number of FOXO4 foci was objectively quantified using ImageJ. […] Liver sections from the experiment in FIG. 4I were stained for IL-6. […] Mice treated as depicted in FIG. 4H (n=9 for PBS, n=11 for FOXO4 DRI) were analyzed for total body weight before and after Doxorubicin-exposure followed by treatment with PBS or FOXO4 DRI. The ratio was plotted. […] Experiment as in FIG. 4H. n=3 animals per group.
# DAPI was used as a counterstain to visualize nuclei. […] The histograms show % viability for the indicated conditions (.
# [2] = system: p16^ink4a-positive senescence; assay: Doxorubicin-induced senescence in p16::3MR mice (RLUC bioluminescence, SA-beta-GAL); assay type: in vivo, mouse
# Protocol: IMR90 cells were exposed twice to 0.5 μM Doxorubicin with one day in between. SA-β-GAL activity was determined 7 days later. […] This figure complements FIG. 4A+B by showing that next to the senescence markers SA-β-Gal and p16^ink4a also the SASP marker IL-6 is elevated by Doxorubicin. […] Mice were i.p. injected with 10 mg/kg Doxorubicin and analyzed for RLUC on the indicated time-points. Changes in RLUC intensity for 5 animals are plotted for the indicated timepoints after injection. […] Following one dose of Doxorubicin (10 mg/kg, i.p.) the mice were treated with FOXO4 DRI (n=6; 4×10 mg/kg i.v.) or PBS (n=4; 4× Mock) and processed for RLUC imaging after 14 d. […] Mice treated as indicated in FIG. 4F were analyzed for Bioluminescence. […] H) To improve the window for measuring healthspan changes, the treatment regime from FIG. 4F) was extended with one additional dose of Doxorubicin and milder FOXO4 DRI treatment. Following two doses of Doxorubicin (both 10 mg/kg i.p.) the mice (n=3 each group) were subsequentially treated with PBS or FOXO4 DRI (3×5 mg/kg, 1 d in between) and 14 d later analyzed for changes in healthspan. […] Post-mortem analysis of liver sections from mice (n=2 each group) treated as in FIG. 4H and stained for FOXO4. The number of FOXO4 foci was objectively quantified using ImageJ. […] Mice treated as depicted in FIG. 4H (n=9 for PBS, n=11 for FOXO4 DRI) were analyzed for total body weight before and after Doxorubicin-exposure followed by treatment with PBS or FOXO4 DRI. […]
# Our senescence-detection model makes use of a construct in which the promoter of p16^ink4a drives a so-called trimodality reporter (3MR) referred to as p16::3MR. […] RLUC and RFP allow visualization of senescent cells in real-time through bioluminescence and fluorescence, respectively. […] On day 0, p16::3MR mice (Demaria et al., Developmental Cell, 31:6 p. 722-733 (2014)) including the Supplemental Experimental procedures) were i.p. injected with 10 mg/kg Doxorubicin and RLUC activity as measure of senescence was determined on the indicated timepoints. […]
# Doxorubicin-treated mice = assay: Doxorubicin-treated mice: liver sections, body weight, plasma ASAT and Amylase; assay type: in vivo
# Protocol: IMR90 cells were exposed twice to 0.5 μM Doxorubicin with one day in between. SA-β-GAL activity was determined 7 days later. […] Mice were i.p. injected with 10 mg/kg Doxorubicin and analyzed for RLUC on the indicated time-points. Changes in RLUC intensity for 5 animals are plotted for the indicated timepoints after injection. […] Mice treated as indicated in FIG. 4F were analyzed for Bioluminescence. […] Liver sections from the experiment in FIG. 4I were stained for IL-6. […] The ratio was plotted. […] Experiment as in FIG. 4H. n=3 animals per group.
molecule,measurement,setting,value
CN(C)CC[C@H](CSc1ccccc1)Nc1ccc(S(=O)(=O)NC(=O)c2ccc(N3CCN(Cc4ccccc4-c4ccc(Cl)cc4)CC3)cc2)cc1[N+](=O)[O-] [ABT-737],toxicity to non-senescent cells,[1],proved to be toxic to non-senescent cells
same,killing/clearing of senescent cells,"[1]; 3× at ⅓, 3 days in between, senescence by IR",only showed limited effectiveness on killing senescent cells
C[C@]12CCC(=O)C=C1CC[C@@H]1[C@@H]2[C@@H](O)C[C@@]2(C)[C@H]1CC[C@]2(O)C(=O)CO [Cortisol],effect on effectiveness of FOXO4 DRI in lowering senescent cell viability,[1],reduce the effectiveness of FOXO4 DRI in lowering senescent cell viability
COc1cccc2c1C(=O)c1c(O)c3c(c(O)c1C2=O)C[C@@](O)(C(=O)CO)C[C@@H]3O[C@H]1C[C@H](N)[C@H](O)[C@H](C)O1 [Doxorubicin],SA-β-GAL expression,"IMR90 cells; IMR90, twice 0.5 μM, 7 days later",induces SA-β-GAL expression in IMR90 cells in vitro
same,IL-6 (SASP marker),IMR90 cells; IMR90 in vitro,"induces IL-6, indicative of elevated SASP"
same,expression of p16^ink4a and FOXO4,IMR90 cells; IMR90 in vitro,induces expression of p 16^ink4a and FOXO4 in IMR90 in vitro
same,induction of senescence in vivo (RLUC),"[2]; 10 mg/kg i.p., p16::3MR mice",induces p16^ink4a-mediated senescence in vivo
same,"organ toxicity (liver, pancreas)","Doxorubicin-treated mice; mouse, in vivo, ip, 10 mg/kg",caused organ toxicity
same,total body weight,"Doxorubicin-treated mice; two doses 10 mg/kg i.p., mice",causes a drop in body weight
CC(C)[C@H](NC(=O)c1ccc2ccccc2n1)C(=O)N[C@@H](CC(=O)O)C(=O)COc1c(F)cccc1F [QVD-OPH],effect of pan-caspase inhibitor on the FOXO4 DRI effect on senescent cell viability,[1],potently blocked the effect of FOXO4 DRI to reduce senescent cell viability
O=c1c(O)c(-c2ccc(O)c(O)c2)oc2cc(O)cc(O)c12 [Quesrcetin],"clearing of senescent IMR90, viability senescent vs non-senescent",[1]; Quesrcetin alone,inefficent towards clearing senescent IMR90
"COc1cc(Nc2ncc(F)c(Nc3ccc4c(n3)NC(=O)C(C)(C)O4)n2)cc(OC)c1OC [R406, 6-(5-fluoro-2-(3,4,5-trimethoxyphenylamino)pyrimidin-4-ylamino)-2,2-dimethyl-2H-pyrido[3,2-b][1,4] oxazin-3 (4H)-one benzenesulfonate]","% viability over Mock, senescent and non-senescent IMR90","[1]; 16, 32, 64 to 128 nM, 6 days",selectively reduces senescent cell viability
same,SA-beta-GAL deposits in kidneys,"[2]; Doxorubicin 10 mg/kg i.p. day 0, once daily i.v. day 11-14",reduced SA-beta-GAL deposits in kidneys
same,Doxorubicin-induced senescence in vivo (bioluminescence),"[2]; Doxorubicin 10 mg/kg i.p. day 0, once daily i.v. day 11-14, imaging day 11 and day 21",repress Doxorubicin-induced senescence in vivo
COC(=O)C[C@H](NC(=O)[C@H](C)NC(=O)[C@@H](NC(=O)OCc1ccccc1)C(C)C)C(=O)CF [ZVAD-FMK] (Cbz-Val-Ala-Asp(OMe)-CH2F),effect of pan-caspase inhibitor on the FOXO4 DRI effect on senescent cell viability,[1],potently blocked the effect of FOXO4 DRI to reduce senescent cell viability
"IL-1RA: IL-1α Receptor Antagonist, which blocks IL-1α/β signaling",effect of pretreatment on effectiveness of FOXO4 DRI for killing senescent cells,"[1]; pretreated once daily for two days, FOXO4 DRI 12.5 μM",reduced the effectiveness of FOXO4 DRI
Lipopolysaccharide,effect on effectiveness of FOXO4 DRI in lowering senescent cell viability,[1],improves it
